# US20030013660A1, “Dioxolane analogs for improved inter-cellular delivery” (Shire BioChem Inc., priority 2000, published 2003)
# Where two headings read alike, the source gives them in different places.
# Experiments:
# Experiment in all cases: 3H-TdR (3H-thymidine) incorporation assay at 72 hr
# SF-268 = assay type: cell-based, Human
# CCRF-CEM = assay type: cell-based
# Procedure: (§1) Table of IC50 Values (μM) for Controls
# (§2) Exposition of 24 hr to drug, wash, incubated for another 48 hr (total of 72 hr assay)
# (§3) (3H-Thymidine Incorporation Assay)
# CEM/dCK- = assay type: cell-based; settings: for IC50: Homo sapiens, CCRF-CEM, read-out: IC50 CEM/dCK- 24 h, 24 h drug exposure, wash, another 48 hr, deoxycytidine kinase-deficient CCRF-CEM; for Factor* (Resistance Factor = Ratio of dCK- on Wild-type CCRF-CEM): ratio of IC50 CEM/dCK- to CCRF-CEM, 24 h
# Procedure: as §1, §2, §3
# MCF-7 = assay type: cell-based, Human
# H-460 = assay type: cell-based, Human
# [1] = Homo sapiens, SF-268, read-out: IC50 SF-268 24 h, 24 h drug exposure, wash, another 48 hr, 3H-TdR incorporation at 72 hr
# [2] = Homo sapiens, CCRF-CEM, read-out: IC50 CCRF-CEM 24 h, 24 h drug exposure, wash, another 48 hr, 3H-TdR incorporation at 72 hr
# [3] = Homo sapiens, MCF7, read-out: IC50 MCF-7 24 h, 24 h drug exposure, wash, another 48 hr, 3H-TdR incorporation at 72 hr
# [4] = Homo sapiens, NCI-H460, read-out: IC50 H-460 24 h, 24 h drug exposure, wash, another 48 hr, 3H-TdR incorporation at 72 hr
SMILES,IC50 (SF-268; [1]) [nM],IC50 (CCRF-CEM; [2]) [nM],IC50 (CEM/dCK-) [nM],Factor* (Resistance Factor = Ratio of dCK- on Wild-type CCRF-CEM) (CEM/dCK-),IC50 (MCF-7; [3]) [nM],IC50 (H-460; [4]) [nM],"IC50 (SF-268; read-out: IC50 SF-268 24 h, 24 h drug exposure, wash, another 48 hr, 3H-TdR incorporation at 72 hr) [nM]","IC50 (CCRF-CEM; read-out: IC50 CCRF-CEM 24 h, 24 h drug exposure, wash, another 48 hr, 3H-TdR incorporation at 72 hr) [nM]","IC50 (MCF-7; read-out: IC50 MCF-7 24 h, 24 h drug exposure, wash, another 48 hr, 3H-TdR incorporation at 72 hr) [nM]","IC50 (H-460; read-out: IC50 H-460 24 h, 24 h drug exposure, wash, another 48 hr, 3H-TdR incorporation at 72 hr) [nM]","IC50 (SF-268; Homo sapiens, SF-268, read-out: IC50 SF-268 24 h) [nM]","IC50 (CCRF-CEM; Homo sapiens, CCRF-CEM, read-out: IC50 CCRF-CEM 24 h) [nM]","IC50 (MCF-7; Homo sapiens, MCF7, read-out: IC50 MCF-7 24 h) [nM]","IC50 (H-460; Homo sapiens, NCI-H460, read-out: IC50 H-460 24 h) [nM]"
"O=C(NCc1ccccc1)Nc1ccn([C@@H]2CO[C@H](CO)O2)c(=O)n1 [Compound 108, 1-BENZYL-3-[1-(2- HYDROXYMETHYL- [1,3]DIOXOLAN-4-YL)-2- OXO-1,2-DIHYDRO- PYRIMIDIN-4-YL]-UREA]",3800,3400,> 100000,>29,27000,1800,,,,,,,,
"O=C(Nc1ccn([C@@H]2CO[C@H](COC(=O)C34CC5CC(CC(C5)C3)C4)O2)c(=O)n1)C12CC3CC(CC(C3)C1)C2 [Compound 102, ADAMANTANE-1-CARBOXYLIC ACID 4-{4-[(ADAMANTANE- 1-CARBONYL)-AMINO]-2- OXO-2H-PYRIMIDIN-1-YL}- [1,3]DIOXOLAN-2- YLMETHYL ESTER]",1000,410,11000,27,1700,190,,,,,,,,
"CN(C)/C=N/c1ccn([C@@H]2CO[C@H](COC(=O)C(c3ccccc3)c3ccccc3)O2)c(=O)n1 [Compound 130, (2S,4S)-2-(2″- DIPHENYLACETOXYMETHYL)- 4-(4′-N,N- DIMETHYLAMINOMETHYLENE- CYTOSIN-1′-YL)-1,3- DIOXOLANE]",110,57,75000,"1,316",50,58,,,,,,,,
"Nc1ccn([C@@H]2CO[C@H](COC(=O)CCCCCNCc3ccccc3)O2)c(=O)n1 [Compound 84, 6-Benzylamino-hexanoic acid 4-(4-amino-2-oxo-2H-pyrimidin-1-yl)-[1,3]dioxolan-2-ylmethyl ester]",,,,"5,000",,,360,12,9.4,14,,,,
COc1cc2c(cc1OC)C(=O)/C(=C/c1cc(C)c(OC(=O)OC[C@H]3OC[C@@H](n4ccc(N)nc4=O)O3)c(C)c1)C2 [Compound 112],,,,10,,,,,,,6.7,5.8,16,11
"O=C(NCc1ccccc1)Nc1ccn([C@@H]2CO[C@H](COC(=O)NCc3ccccc3)O2)c(=O)n1 [Compound 109, BENZYL-CARBAMIC ACID 4- [4-(3-BENZYL-UREIDO)-2- OXO-2#H!-PYRIMIDIN-1- YL]-[1,3]DIOXOLAN-2- YLMETHYL ESTER]",4800,1000,> 100000,>100,31000,2600,,,,,,,,
"Nc1ccn([C@@H]2COC(COCOCc3ccccc3)O2)c(=O)n1 (stereo in doubt) [Compound 56, 4-AMINO-1-(2- BENZYLOXYMETHOXYMETHYL- [1,3]DIOXOLAN-4-YL)-1H- PYRIMIDIN-2-ONE]",25000,1600,> 100000,63,2000,7000,,,,,,,,
"CCCCOC(=O)Nc1ccn([C@@H]2CO[C@H](CO)O2)c(=O)n1 [Compound 59, [1-(2-HYDROXYMETHYL- [1,3]DIOXOLAN-4-YL)-2- OXO-1,2-DIHYDRO- PYRIMIDIN-4-YL]- CARBAMIC ACID BUTYL ESTER]",690,540,> 100000,185,190,1400,,,,,,,,
"Nc1ccn([C@@H]2CO[C@H](COC3Sc4ccccc4S3)O2)c(=O)n1 [Compound 138, 4-AMINO-1-[2- (BENZO[1,3]DITHIOL-2- YLOXYMETHYL)- [1,3]DIOXOLAN-4-YL]-1H- PYRIMIDIN-2-ONE]",2100,530,58000,109,1500,920,,,,,,,,
"CC(C)[C@H](N)C(=O)Nc1ccn([C@@H]2CO[C@H](CO)O2)c(=O)n1.O=C(O)C(F)(F)F [Compound 280, 2-Amino-N-[1-(2-hydoxymethyl-[1,3]dioxolan-4-yl)-2-oxo-1,2-dihydro-pyrimidin-4-yl]-3-methyl-butyramide; trifluoroacetic acid salt]",18000,1900,> 100000,>53,3100,1900,,,,,,,,
"Nc1ccn([C@@H]2CO[C@H](COC3OCCO3)O2)c(=O)n1 [Compound 40, 4-AMINO-1-[2- ([1,3]DIOXOLAN-2- YLOXYMETHYL)- [1,3]DIOXOLAN-4-YL]-1H- PYRIMIDIN-2-ONE]",900,89,> 100000,"1,123",70,320,,,,,,,,
"O=c1nc(NCn2nnc3ccccc32)ccn1[C@@H]1CO[C@H](CO)O1 [Compound 152, 4-[(BENZOTRIAZOL-1- YLMETHYL)-AMINO]-1-(2- HYDROXYMETHYL- [1,3]DIOXOLAN-4-YL)-1H- PYRIMIDIN-2-ONE]",31000,790,> 100000,>127,3000,3500,,,,,,,,
"O=C(Nc1ccn([C@@H]2CO[C@H](COC(=O)c3ccccc3)O2)c(=O)n1)OCc1ccccc1 [Compound 153, BENZOIC ACID 4-(4- BENZYLOXYCARBONYLAMINO- 2-OXO-2H-PYRIMIDIN-1- YL)-[1,3]DIOXOLAN-2- YLMETHYL ESTER]",59000,210,> 100000,>476,39000,46000,,,,,,,,
"O=C(Nc1ccn([C@@H]2CO[C@H](COC(=O)OCc3ccccc3)O2)c(=O)n1)OCc1ccccc1 [Compound 51, 4-(4- BENZYLOXYCARBONYLAMINOC YTOSYL)-[1,3]DIOXOLAN- 2-YLMETHYL BENZYL CARBONATE]",860,24,47000,"1,958",570,830,,,,,,,,
"CCCCC(CC)C(=O)OC[C@H]1OC[C@@H](n2ccc(/N=C/N(C)C)nc2=O)O1 (stereo partly drawn) [Compound 65, (2S,4S)-2-(2″-ETHYL- HEXANOICOXYMETHYL)-4- (4′-N,N- DIMETHYLAMINOMETHYLENE- CYTOSIN-1′-YL)-1,3- DIOXOLANE]",33,3.9,26000,"6,667",12,11,,,,,,,,
"CCCCCCNC(=O)Nc1ccn([C@@H]2CO[C@H](COC(=O)NCCCCCC)O2)c(=O)n1 [Compound 119, HEXYL-CARBANIC ACID 4- [4-(3-HEXYL-UREIDO)-2- OXO-2#H!-PYRIMIDIN-1- YL]-[1,3]DIOXOLAN-2- YLMETHYL ESTER]",94000,56000,96000,˜2,27000,17000,,,,,,,,
"CC(C)(OCc1ccccc1)OC[C@H]1OC[C@@H](n2ccc(N)nc2=O)O1 [Compound 154, 4-AMINO-1-[2-(1- BENZYLOXY-1-METHYL- ETHOXYMETHYL)- [1,3]DIOXOLAN-4-YL]-1H- PYRIMIDIN-2-ONE]",4400,140,> 100000,>714,1600,760,,,,,,,,
